# Data taken from US20100130544A1, “USE OF PARASYM[…] ENHANCE AND […] CELL DIFFERENTIATION, RELATED METHODS AND COMPOSITIONS” (UNIVERSITA' DEGLI STUDI DI TORINO, priority 2006, published 2010).
# Columns and labels:
# THP-1 cells (PSC-THP1) = assay: Phenotypic analysis (Western blotting, immunofluorescence) of PSC-THP1 stimulated towards hepatocytic type + parasympatholytic; assay type: cell-based, human; parameters: key to expression of CD34: −−−−− = absence of any fluorescence; + = 1-5 fluorescent cells per optical field; ++ = 6-10 fluorescent cells per optical field; +++ = 10-20 fluorescent cells per optical field; ++++ = 20-50 fluorescent cells per optical field; +++++ > 50 fluorescent cells per optical field; settings: PSC-THP1 Hepatocytic type + parasympath. (HGF medium + 0.2 μg/mL scopolamine)
# Protocol: (§1) Furthermore, samples of the same cells, taken every seventh day of incubation, have been incubated for 5-8 minutes with 2% lidocaine (Sigma Aldrich, Milan, Italy) in PBS and the solution thus obtained harvested, as described in the bibliography.
# (§2) Western blotting first makes use of denaturing electrophoresis (SDS-PAGE) in order to separate the various proteins according to molecular weight, by cancelling out the charges on the amino acids which might influence migration. The cell samples, suspended in lysis buffer (1% SDS, 30 mM Tris pH 6.8, 5% glycerol) to which protease inhibitors (Protease Inhibitor Cocktail, Calbiochem, San Diego, Calif., USA) have been added, have been incubated for 30 minutes at 4° C. The lysates thus obtained have been centrifuged at 12,000 rpm for 20 minutes at 4° C. and the supernatants collected; the protein concentrations of the samples have been measured using the Bio-Rad method (Benchmark Plus assay, Bio-Rad). Prior to electrophoresis, the samples have been boiled for 5 minutes in the presence of beta-mercaptoethanol and bromophenol blue. The samples have been subjected to electrophoresis on a 12% gel (SDS-PAGE) and then transferred onto a PVDF membrane (Perkin Elmer Inc.). The membranes have been saturated with […] at room temperature and subsequently incubated overnight, at 4° C., with the following primary antibodies diluted 1:500 in PBS with 5% skimmed milk powder: anti-CD 34 (Santa Cruz Biotechnology, CA, USA), anti-CD 14 (Santa Cruz Biotechnology, CA, USA), anti-CD 45 (Santa Cruz Biotechnology, CA, USA), anti-CD 71 (Santa Cruz Biotechnology, CA, USA), anti-CD 90 (Santa Cruz Biotechnology, CA, USA), anti-CD 29 (Santa Cruz Biotechnology, CA, USA), anti-CD 105 (Santa Cruz Biotechnology, CA, USA), anti CD 117/c-KIT (Santa Cruz Biotechnology, CA, USA), anti c-MET (Santa Cruz Biotechnology, CA, USA), anti cytokeratin 7 (Santa Cruz Biotechnology, CA, USA), anti cytokeratin 8 (Santa Cruz Biotechnology, CA, USA), anti cytokeratin 18 (Santa Cruz Biotechnology, CA, USA), anti cytokeratin 19 (Santa Cruz Biotechnology, CA, USA), anti cytokeratin 7/17 (Santa Cruz Biotechnology, CA, USA), anti albumin (Rockland Immunochemicals, PA, USA), anti alpha-fetoprotein (Monosan Europa, Netherlands). After five washes, the membranes have been incubated with the corresponding secondary antibodies (1:1000) conjugated to horseradish peroxidase (HRP, SantaCruz Biotechnologies Inc., Santa Cruz, Calif., USA) for 1 hour at room temperature.
# (§3) Cells in suspension have been incubated with […] MitoTracker Red for 10 minutes at 37° C. […] After three washes in PBS, the cells have been resuspended in a solution of PBS and 0.1% Triton for 1 hour at 4° C. After three washes in PBS, the cells have been seeded onto slide covers and the liquid allowed to evaporate-off in air. The cells have been blocked with 20% normal goat serum for one hour, then incubated for 30 minutes with the following fluorescein isothiocyanate (FITC) conjugated anti-human monoclonal antibodies: anti-CD 34 (Santa Cruz Biotechnology, CA, USA), anti-CD 14 (Santa Cruz Biotechnology, CA, USA), anti-CD 45 (Santa Cruz Biotechnology, CA, USA), anti-CD 71 (Santa Cruz Biotechnology, CA, USA), anti-CD 90 (Santa Cruz Biotechnology, CA, USA), anti-CD 29 (Santa Cruz Biotechnology, CA, USA), anti-CD 105 (Santa Cruz Biotechnology, CA, USA), anti CD 117/c-KIT (Santa Cruz Biotechnology, CA, USA), anti c-KIT (Santa Cruz Biotechnology, CA, USA), anti c-MET (Santa Cruz Biotechnology, CA, USA), anti cytokeratin 7 (Santa Cruz Biotechnology, CA, USA), anti cytokeratin 8 (Santa Cruz Biotechnology, CA, USA), anti cytokeratin 18 (Santa Cruz Biotechnology, CA, USA), anti cytokeratin 19 (Santa Cruz Biotechnology, CA, USA), anti cytokeratin 7/17 (Santa Cruz Biotechnology, CA, USA), anti albumin (Rockland Immunochemicals, PA, USA), anti alpha-fetoprotein (Monosan Europa, Netherlands). […]
# [1] = test system: Human mesenchymal pluripotent stem cells (MSCs); assay: Phenotypic analysis (Western blotting, immunofluorescence) of mesenchymal cells stimulated towards hepatocytic type + parasympatholytic; assay type: cell-based; settings: Mesenchymal cells Hepatocytic type + parasympath. (HGF medium + 0.2 μg/mL scopolamine)
# Description: Human mesenchymal pluripotent stem cells (MSCs, mesenchymal Stem Cells) have been extracted from samples of bone marrow (BM) taken from the femoral head (spongy tissue and bone marrow) during complete hip-replacement surgery. The nucleated cells have been separated by means of a density gradient (Ficoll-Paque, Amersham) and resuspended in low-glucose Dulbecco's modified Eagle's medium (DMEM-LG, Gibco, Grand Island, N.Y., USA) supplemented with 10% foetal bovine serum (FBS, Sigma), 10 U/mL penicillin G, and 40 μg/mL gentamycin. After 24 hours in culture, the medium, along with any cells in suspension, has been removed by aspiration and fresh medium added onto the adhered cells. The cells have been grown in 75 cm^2 flasks in an incubator with 5% CO2 at a temperature of 37° C. When the cells reach 80% confluence, they are detached using trypsin-EDTA (5 minutes incubation at 37° C. followed by the addition of 5 mL of pure FBS, and the detached cells in suspension are harvested), washed twice by centrifugation at 160 g for 7 minutes at 37° C. in DMEM-LG medium (Gibco; Grand Island, N.Y., USA) free of any supplements. The cells in the pellets thus obtained are resuspended at a concentration of 1×10^6 in fresh DMEM-LG medium (Gibco; Grand Island, N.Y., USA) supplemented with 10% foetal bovine serum (FBS, Sigma), 10 U/mL penicillin G, and 40 μg/mL gentamycin. The cells are reseeded after 1:4 dilution (final concentration 2.5×10^4). In this study, cells after the third passage in continuous culture have been used.
# As described above in detail, every seventh day of incubation samples of all confluent MSC and SynC cells have been subjected to immunofluorescence testing of samples adhered onto sell culture slides.
# Furthermore, every seventh day of incubation, samples of the same cells have been detached using trypsin-EDTA (5 minutes at a temperature of 37° C. followed by the addition of 5 mL of pure FBS and the detached cells in suspension harvested) and washed twice by centrifugation at 160 g for 7 minutes at 37° C. in DMEM-LG (Gibco; Grand Island, N.Y., USA) without any supplements.
# Western blotting first makes use of denaturing electrophoresis (SDS-PAGE) in order to separate the various proteins according to molecular weight, by cancelling out the charges on the amino acids which might influence migration. The cell samples, suspended in lysis buffer (1% SDS, 30 mM Tris pH 6.8, 5% glycerol) to which protease inhibitors (Protease Inhibitor Cocktail, Calbiochem, San Diego, Calif., USA) have been added, have been incubated for 30 minutes at 4° C. The lysates thus obtained have been centrifuged at 12,000 rpm for 20 minutes at 4° C. and the supernatants collected; the protein concentrations of the samples have been measured using the Bio-Rad method (Benchmark Plus assay, Bio-Rad). Prior to electrophoresis, the samples have been boiled for 5 minutes in the presence of beta-mercaptoethanol and bromophenol blue. The samples have been subjected to electrophoresis on a 12% gel (SDS-PAGE) and then transferred onto a PVDF membrane (Perkin Elmer Inc.). […]
# [2] = test system: peripheral blood monocytes; assay: Phenotypic analysis (Western blotting, immunofluorescence) of monocytes stimulated towards hepatocytic type + parasympatholytic; assay type: cell-based, human; parameters: key to expression of CD34: −−−−− = absence of any fluorescence; + = 1-5 fluorescent cells per optical field; ++ = 6-10 fluorescent cells per optical field; +++ = 10-20 fluorescent cells per optical field; ++++ = 20-50 fluorescent cells per optical field; +++++ > 50 fluorescent cells per optical field; settings: monocytes Hepatocytic type + parasympath. (HGF medium + 0.2 μg/mL scopolamine)
# Protocol: as §1, §2, §3
# Synovial cells (SynCs) = assay: Phenotypic analysis (Western blotting, immunofluorescence) of synovial cells stimulated towards hepatocytic type + parasympatholytic; assay type: cell-based, human; settings: Synovial cells Hepatocytic type + parasympath. (HGF medium + 0.2 μg/mL scopolamine)
# Protocol: Synovial cells (SynCs) have been obtained from patients during exeresis and curettage of the synovial membrane inside the femoral-tibial joint cavity. Fresh synovial tissue sections have been disaggregated in collagenase (10 μg per mL of medium, Sigma) for two hours at 37° C. The pellet, washed twice in DMEM-LG (Gibco; Grand Island, N.Y., USA), free of any supplements, by centrifugation at 160 g for 10 minutes and then resuspended in complete low-glucose Dulbecco's modified Eagle's medium ([DMEM-LG] GIBCO; Grand Island, N.Y., USA) supplemented with 10% foetal bovine serum ([FBS] Sigma), 10 U/mL penicillin G, and 40 μg/mL gentamycin, is finally seeded into 75 cm^2 flasks and incubated in 5% CO2 at a temperature of 37° C. After 24 hours, the medium, along with any cells still in suspension, has been aspirated off and fresh medium (DMEM-LG, Gibco; Grand Island, N.Y., USA, supplemented with 10% FBS, Sigma, 10 U/mL penicillin G, and 40 μg/mL gentamycin) has been added over the adhered cells. The cells have been grown in 75 cm^2 flasks in an incubator with 5% CO2 at a temperature of 37° C. When the cells reach 80% confluence, they are detached using trypsin-EDTA (5 minutes incubation at 37° C. followed by the addition of 5 mL of pure FBS, and the detached cells in suspension are harvested), washed twice by centrifugation at 160 g for 7 minutes at 37° C. in DMEM-LG medium (Gibco; Grand Island, N.Y., USA) free of any supplements. The cells in the pellets thus obtained are resuspended at a concentration of 1×10^6 in fresh DMEM-LG medium (Gibco; Grand Island, N.Y., USA) supplemented with 10% foetal bovine serum ([FBS] Sigma), 10 U/mL penicillin G, and 40 μg/mL gentamycin. The cells have been reseeded after 1:4 dilution (final concentration 2.5×10^4). In this study, cells after the second passage in continuous culture have been used.
# As described above in detail, every seventh day of incubation samples of all confluent MSC and SynC cells have been subjected to immunofluorescence testing of samples adhered onto sell culture slides. […]
# Western blotting first makes use of denaturing electrophoresis (SDS-PAGE) in order to separate the various proteins according to molecular weight, by cancelling out the charges on the amino acids which might influence migration. […] The lysates thus obtained have been centrifuged at 12,000 rpm for 20 minutes at 4° C. and the supernatants collected; the protein concentrations of the samples have been measured using the Bio-Rad method (Benchmark Plus assay, Bio-Rad). […]
compound,measurement,setting,value
"CN1[C@@H]2C[C@@H](OC(=O)[C@H](CO)c3ccccc3)C[C@H]1[C@@H]1O[C@@H]12 [scopolamine, [7(S)-(1α,2β,4β,5α,7β)]-α-(hydroxymethyl)acid benzenacetic-9-methyl-3-oxa-9-azatricyclo[3.3.1.02,4]non-7-yl-ester]",expression of CD14,THP-1 cells (PSC-THP1),+ (+ = 1-5 fluorescent cells per optical field)
same,expression of CD34,THP-1 cells (PSC-THP1),−−−−−
same,expression of Cytokeratin 7,THP-1 cells (PSC-THP1),+++++ (+++++ > 50 fluorescent cells per optical field)
same,expression of Cytokeratin 8,THP-1 cells (PSC-THP1),++++ (++++ = 20-50 fluorescent cells per optical field)
same,expression of Cytokeratin 18,THP-1 cells (PSC-THP1),+++ (+++ = 10-20 fluorescent cells per optical field)
same,expression of Cytokeratin 19,THP-1 cells (PSC-THP1),+++++ (+++++ > 50 fluorescent cells per optical field)
same,expression of Cytokeratins 7/17,THP-1 cells (PSC-THP1),++++ (++++ = 20-50 fluorescent cells per optical field)
same,expression of Human albumin,THP-1 cells (PSC-THP1),+++++ (+++++ > 50 fluorescent cells per optical field)
same,expression of alpha-fetoprotein,THP-1 cells (PSC-THP1),++ (++ = 6-10 fluorescent cells per optical field)
same,expression of c-KIT,THP-1 cells (PSC-THP1),+ (+ = 1-5 fluorescent cells per optical field)
same,expression of c-Met,THP-1 cells (PSC-THP1),++ (++ = 6-10 fluorescent cells per optical field)
same,expression of CD29,[1],+ (+ = 1-5 fluorescent cells per optical field)
same,expression of CD71,[1],++ (++ = 6-10 fluorescent cells per optical field)
same,expression of CD90,[1],+ (+ = 1-5 fluorescent cells per optical field)
same,expression of CD105,[1],+ (+ = 1-5 fluorescent cells per optical field)
same,expression of Human albumin,[1],++ (++ = 6-10 fluorescent cells per optical field)
same,expression of alpha-fetoprotein,[1],+ (+ = 1-5 fluorescent cells per optical field)
same,expression of c-KIT,[1],+ (+ = 1-5 fluorescent cells per optical field)
same,expression of CD14,[2],+ (+ = 1-5 fluorescent cells per optical field)
same,expression of CD34,[2],−−−−−
same,expression of Cytokeratin 7,[2],+++++ (+++++ > 50 fluorescent cells per optical field)
same,expression of Cytokeratin 8,[2],++++ (++++ = 20-50 fluorescent cells per optical field)
same,expression of Cytokeratin 18,[2],+++ (+++ = 10-20 fluorescent cells per optical field)
same,expression of Cytokeratin 19,[2],+++++ (+++++ > 50 fluorescent cells per optical field)
same,expression of Cytokeratins 7/17,[2],++++ (++++ = 20-50 fluorescent cells per optical field)
same,expression of Human albumin,[2],+++++ (+++++ > 50 fluorescent cells per optical field)
same,expression of alpha-fetoprotein,[2],++ (++ = 6-10 fluorescent cells per optical field)
same,expression of c-KIT,[2],+ (+ = 1-5 fluorescent cells per optical field)
same,expression of c-Met,[2],++ (++ = 6-10 fluorescent cells per optical field)
same,expression of CD71,Synovial cells (SynCs),++ (++ = 6-10 fluorescent cells per optical field)
same,expression of Human albumin,Synovial cells (SynCs),+++ (+++ = 10-20 fluorescent cells per optical field)
same,expression of alpha-fetoprotein,Synovial cells (SynCs),+ (+ = 1-5 fluorescent cells per optical field)
same,expression of c-KIT,Synovial cells (SynCs),+ (+ = 1-5 fluorescent cells per optical field)
